Reference: PubChem BioAssay AID264 (DTP/NCI, 2004)
Values joined by “and” are separate entries in the source; they are usually repeats but may differ in a detail not shown here. Equal values may be shown once. Results filed as inconclusive are left out.

System: nude mice, LX-1 lung xenograft intrarenal, tumor weight T/C
Test: NCI In Vivo Anticancer Drug Screen. Data for tumor model Human Lung LX-1 Xenograft (intrarenal inoculation) in NU/NU Swiss (nude) mice
Details: endpoint: mean tumor weight change, higher = larger tumour
Summary of the method: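 Activity was scored by measuring tumors in treated animals and in vehicle controls, then reporting the treated result as a fraction of the control result.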

[1] = dose: 150.0 mg/kg/injection, schedule: Q04DX003 (sc), vehicle: saline
[2] = dose: 300.0 mg/kg/injection, schedule: Q04DX003 (sc), vehicle: Klucel (hydroxypropylcellulose) (HPC)
[3] = dose: 600.0 mg/kg/injection, schedule: Q04DX003 (sc), vehicle: Klucel (hydroxypropylcellulose) (HPC)
[4] = dose: 1200.0 mg/kg/injection, schedule: Q04DX003 (sc), vehicle: Klucel (hydroxypropylcellulose) (HPC)
[5] = dose: 50.0 mg/kg/injection, schedule: Q01DX010 (sc), vehicle: saline with Tween-80
[6] = dose: 100.0 mg/kg/injection, schedule: Q01DX010 (sc), vehicle: saline with Tween-80

SMILES: COc1cc(Cc2nccc3cc(OC)c(OC)cc23)c(C(C)=O)cc1OC
- T/C [1]: 87 % of control
- T/C (dose: 300.0 mg/kg/injection, schedule: Q04DX003 (sc), vehicle: saline): 88 % of control
- T/C (dose: 600.0 mg/kg/injection, schedule: Q04DX003 (sc), vehicle: saline): 99 % of control
- T/C (dose: 1200.0 mg/kg/injection, schedule: Q04DX003 (sc), vehicle: saline): 87 % of control

SMILES: CNC(=O)c1cccc2c(Nc3ccc(NS(C)(=O)=O)cc3OC)c3cccc(C)c3nc12
- T/C (dose: 50.0 mg/kg/injection, schedule: Q04DX003 (sc), vehicle: water): 69 % of control

SMILES: Cc1[nH]c(=O)[nH]c(=O)c1N(CCF)CCCl
- T/C (dose: 40.0 mg/kg/injection, schedule: Q01DX010 (sc), vehicle: Klucel (hydroxypropylcellulose) (HPC)): 19 % of control and 34 % of control and 36 % of control

SMILES: CN=C(NC#N)NCCSCc1nc[nH]c1C
- T/C [2]: 81 % of control
- T/C [3]: 66 % of control
- T/C [4]: 73 % of control

SMILES: C1CCC2C[N-]CCC2C1.C1CCC2C[N-]CCC2C1.C1CCC2C[N-]CCC2C1.C1CCC2C[N-]CCC2C1.[Cl][Rh][Cl] (configuration not stated)
- T/C (dose: 4.5 mg/kg/injection, schedule: Q04DX003 (sc), vehicle: saline with Tween-80): 64 % of control
- T/C (dose: 9.0 mg/kg/injection, schedule: Q04DX003 (sc), vehicle: saline with Tween-80): 89 % of control
- T/C (dose: 18.0 mg/kg/injection, schedule: Q04DX003 (sc), vehicle: saline with Tween-80): 63 % of control
- T/C (dose: 36.0 mg/kg/injection, schedule: Q04DX003 (sc), vehicle: saline with Tween-80): 60 % of control

SMILES: C/C=C/c1cc2c(c(=O)o1)C(=O)[C@@H](O)[C@H](C)O2
- T/C (dose: 25.0 mg/kg/injection, schedule: Q04DX003 (sc), vehicle: saline with Tween-80): 92 % of control
- T/C (dose: 50.0 mg/kg/injection, schedule: Q04DX003 (sc), vehicle: saline with Tween-80): 95 % of control
- T/C (dose: 100.0 mg/kg/injection, schedule: Q04DX003 (sc), vehicle: saline with Tween-80): 75 % of control and 97 % of control
- T/C (dose: 200.0 mg/kg/injection, schedule: Q04DX003 (sc), vehicle: saline with Tween-80): 82 % of control and 87 % of control

SMILES: c1ccc2c(c1)nnn1c3cnccc3nc21
- T/C (dose: 3.12 mg/kg/injection, schedule: Q01DX010 (sc), vehicle: saline with Tween-80): 59 % of control
- T/C (dose: 6.25 mg/kg/injection, schedule: Q01DX010 (sc), vehicle: saline with Tween-80): 187 % of control
- T/C (dose: 12.5 mg/kg/injection, schedule: Q01DX010 (sc), vehicle: saline with Tween-80): 72 % of control
- T/C (dose: 25.0 mg/kg/injection, schedule: Q01DX010 (sc), vehicle: saline with Tween-80): 107 % of control
- T/C [5]: 160 % of control
- T/C [6]: 210 % of control

SMILES: O=P1(NCCCl)OCCCN1CCCl (configuration not stated)
- T/C (dose: 75.0 mg/kg/injection, schedule: Q04DX003 (sc), vehicle: saline): 93 % of control
- T/C [1]: 109 % of control

SMILES: CCCCCC#CC1OC12CCCCC2 (configuration not stated)
- T/C (dose: 300.0 mg/kg/injection, schedule: Q04DX003 (sc), vehicle: saline with Tween-80): 97 % of control
- T/C (dose: 600.0 mg/kg/injection, schedule: Q04DX003 (sc), vehicle: saline with Tween-80): 93 % of control
- T/C (dose: 1200.0 mg/kg/injection, schedule: Q04DX003 (sc), vehicle: saline with Tween-80): 60 % of control
- T/C (dose: 2400.0 mg/kg/injection, schedule: Q04DX003 (sc), vehicle: saline with Tween-80): 79 % of control

SMILES: COC1/C=C/O[C@@]2(C)Oc3c(C)c(O)c4c(O)c(cc(O)c4c3C2=O)NC(=O)/C(C)=C\C=C\[C@H](C)C(O)[C@@H](C)[C@@H](O)[C@@H](C)[C@H](OC(C)=O)[C@@H]1C (some centres not stated)
- T/C (dose: 300.0 mg/kg/injection, schedule: Q04DX003 (sc), vehicle: suspension in saline): 60 % of control
- T/C (dose: 600.0 mg/kg/injection, schedule: Q04DX003 (sc), vehicle: suspension in saline): 84 % of control
- T/C (dose: 1200.0 mg/kg/injection, schedule: Q04DX003 (sc), vehicle: suspension in saline): 53 % of control
- T/C (dose: 2400.0 mg/kg/injection, schedule: Q04DX003 (sc), vehicle: suspension in saline): 64 % of control

SMILES: CN(C1=NS(=O)(=O)N=C(N(C)c2ccccc2)O1)c1ccccc1
- T/C [2]: 66 % of control
- T/C [3]: 61 % of control
- T/C [4]: 79 % of control
- T/C (dose: 2400.0 mg/kg/injection, schedule: Q04DX003 (sc), vehicle: Klucel (hydroxypropylcellulose) (HPC)): 91 % of control

SMILES: CN1CCN(c2ccc([N+](=O)[O-])c3no[n+]([O-])c23)CC1
- T/C (dose: 150.0 mg/kg/injection, schedule: Q04DX003 (sc), vehicle: saline with Tween-80): 73 % of control

SMILES: O=C(CO)c1ccc([N+](=O)[O-])cc1
- T/C [5]: 78 % of control
- T/C [6]: 86 % of control
- T/C (dose: 200.0 mg/kg/injection, schedule: Q01DX010 (sc), vehicle: saline with Tween-80): 103 % of control
- T/C (dose: 400.0 mg/kg/injection, schedule: Q01DX010 (sc), vehicle: saline with Tween-80): 70 % of control
